Experimental data published in patent US20190185544A1, “COMPOSITIONS AND METHODS OF MODULATING ABETA PROTEIN” (University of South Florida, priority 2016, published 2019).
Entries after “also recorded” stand apart in the source; their conditions may differ.

Assays:
Type in all cases: cell-based, Chinese hamster
CHO/APPdE1 cells = assay: Aβ production in CHO cells expressing APP695 lacking the N-terminal E1 region; details: peptides 10 μM or apoE 10 μg/mL, 4 h; compared with CHO/APPwt
Excerpt: CHO cells were also transfected with pCMV6 APP695 or pCMV6 E1 depleted APP695, yielding cells expressing wild type APP695 (CHO/APPwt) or truncated APP695 lacking the N-terminal E1 region (CHO/APPdE1). […] Diagram indicates important domains identified in APP, including N-terminal E1 region (top panel), and APPwt and APPdE1 proteins in cell lysates and conditioned media derived from the transfected CHO cells as determined by WB using 6E10 (middle panels). […] ELISA results are representative of three independent experiments with each condition triplicated and presented as mean±s.d. of Aβs (μg/mg of total intracellular protein). Asterisk indicates P<0.05 compared with the corresponding absence of 22C11, 6H3B5 or 6KApoEp, or with corresponding CHO/APPwt cells, as determined by one-way ANOVA.
Therefore, apoE and ApoEp mediates and 6KApoEp reduces Aβ production by binding to the N-terminal E1 region of APP, but this region of APP is not required for spontaneous Aβ release in the absence of apoE.

p38 MAPK = p38 MAPK phosphorylation in CHO/APPwt cell lysates (WB); details: peptides 10 μM or apoE 10 μg/mL, 0 to 180 min
CHO/APPwt cells = assay: Aβ production in CHO/APPwt cells, treatment alone (Aβ1-40, 42 ELISA, 82E1 WB); details: for Aβ production (Aβ1-40, 42): serum-free medium, 2 h (ELISA) or 16 h (WB)
Experimental: Chinese hamster ovary (CHO) cells overexpressing human wild-type amyloid precursor protein (APPwt) (CHO/APPwt cells) were cultured in 96-well plate at about 2×10^4/well in Dulbecco's modified Eagle's medium (DMEM) with 10% fetal bovine serum (FBS), 1 mM sodium pyruvate and 100 U/mL of penicillin/streptomycin for 18 hours.
CHO/APPwt cells were cultured in 96-well plate (about 2×10^4/well) in serum-free medium and treated with ApoE LDLR, FlagApoE LDLR (SEQ ID NO.: 1 with an N-terminal FLAG tag), BiotinApo LDLR (SEQ ID NO.: 1 with an N-terminal Biotin) and 3 lysinesApoE LDLR (3KApoE LDLR (SEQ ID NO.: 2)) at indicated doses for about 2 hours.
The conditioned media and cell lysates were prepared, and subjected to Aβ ELISA and protein assay.
CHO cells overexpressing human wild-type APP (CHO/APPwt) cells were cultured in 96-well plate at 2×10^4/well in Dulbecco's modified Eagle's medium (DMEM) with 10% fetal bovine serum (FBS), 1 mM sodium pyruvate and 100 U/mL of penicillin/streptomycin for 18 hours. […] 82E1 WB analyses as shown below the Aβ ELISA result histograms. The Aβ ELISA results are representative of three independent experiments with each condition triplicated and presented as mean±SD.
(residues 133-152, SEQ ID NO: 1)] as indicated for 2 and 16 hours (h). The conditioned media and cell lysates were analyzed by Aβ1-40, 42 ELISA (FIG. 10A), 82E1 WB analysis (FIG. 10B) and protein assay, respectively. In addition, (FIG. 10C) CHO/APPwt cells were cultured in 96-well plate (2×10^4/well) in serum-free DMEM and treated with FlagApoE-LBDP, BiotinApoE-LBDP and 3 lysineApoE-LBDP (3KApoE-LBDP) in comparing to ApoE-LBDP at indicated doses for 2 hours (h). […] (SEQ ID NO: 2); […]-[…] (SEQ ID NO: 10); Biotin-[…] (SEQ ID NO: 1 with an N-Terminal Biotin).
CHO cells engineered to express human wild-type APP (CHO/APPwt) or Swedish mutant APP (CHO/APPswe) were obtained. These cells were cultured in 96 or 24 well plates at 4×10^4 or 2×10^5 cells/well, respectively, in Dulbecco's modified Eagle's medium (DMEM) with 10% fetal bovine serum, 1 mM sodium pyruvate and 100 U/mL of penicillin/streptomycin (Invitrogen, Thermo Fisher Scientific). In addition, murine N2a cells transfected with APPwt (N2a/APPwt were obtained), SH-SY5Y cells transfected with APPswe and wild-type SH-SY5Y cells (ATCC, Manassas, Va.) were cultured as previously described^42. Primary hN2TM human neurons (Neuromics, Edina, Minn.) were cultured in hN2TM human neuron culture media and primary HCN2 human neurons (ATCC) were cultured in DMEM with 4 mM L-glutamine adjusted to contain 1.5 g/L sodium bicarbonate, 4.5 g/L glucose, fetal bovine serum (10%).
Aβ1-40, 42 and sAPPα from cell and brain homogenates were detected by Aβ1-40, 42 and sAPPα ELISA kits (IBL-America), strictly following the manufacturer's instructions^43,44.
WB analyses were performed as previously described^43,44. Briefly, 10% bicine/tris gel containing 8 M urea was used for separation of Aβ1-40, 42 species from brain homogenates or CHO cell conditioned media or lysates, followed by transfer to 0.2 μm pore-size nitrocellulose membrane (Bio-Rad, Hercules, Calif.). The membrane was boiled in PBS for 3 to 5 min before blocking to enhance sensitivity and then incubated with 82E1. For all other proteins detected by WB, 10% tris-SDS gels were used. Densitometry analysis was performed as previously described using a FluorS Multiimager with Quantity One™ software 43.

ApoE4: human recombinant apolipoprotein E4 protein (BioVision)
Aβ production in CHO/APPdE1 cells (CHO/APPdE1 cells): markedly less Aβ production compared with CHO/APPwt cells | p38 MAPK phosphorylation (p38 MAPK): activated both p44/42 and p38 MAPK phosphorylation | sAPPα secretion (CHO/APPwt cells): decreased sAPPα secretion | Aβ production (Aβ1-40, 42) (CHO/APPwt cells): increased Aβ1-40, 42 production; also recorded: markedly promote amyloid β protein (Aβ) production

ApoE3: human recombinant apolipoprotein E3 protein (BioVision)
Aβ production in CHO/APPdE1 cells (CHO/APPdE1 cells): markedly less Aβ production compared with CHO/APPwt cells | p38 MAPK phosphorylation (p38 MAPK): activated both p44/42 and p38 MAPK phosphorylation | sAPPα secretion (CHO/APPwt cells): decreased sAPPα secretion | Aβ production (Aβ1-40, 42) (CHO/APPwt cells): markedly promote amyloid β protein (Aβ) production
